From patent US20220402867A1, “SULFO-SUBSTITUTED BIARYL COMPOUND OR SALT THEREOF, PREPARATION METHOD THEREFOR, AND USE THEREOF” (Shanghai Litedd Co., Ltd., priority 2019, published 2022) come the findings set out here.

What is called half-life is the time needed for the level to fall by half in the phase considered. By microsomal CLint is commonly meant the capacity of the preparation to metabolise the compound, expressed as a volume cleared per time. The EC50 is the concentration needed to bring the measured effect to its halfway point. As a reminder, the Emax is the size of the effect at its maximum, as opposed to the concentration needed. As usually defined, the AUC(0-t) is exposure summed from dosing to a finite time, without extrapolation to infinity. What is called Cmax is the highest concentration seen after dosing. A word on the bioavailability: it is the share of a dose that reaches the circulation, judged against a reference dose that is usually intravenous.

Data set [1] is described as follows: Metabolic stability in mouse liver microsomes. Format: in vitro ADME, CD-1 mice. The conditions noted are these: for half-life: CD-1; for microsomal CLint: CD-1, 0.5 mg protein/mL. The text has this: According to standard methods of in vitro metabolic stability studies in the art, eg., the methods described in Kerns, Edward H. and Di Li (2008). Drug-like Properties: Concepts, Structure Design and Methods: from ADME to Toxicity Optimization. San Diego: Academic Press; Di, Li et al., Optimization of a Higher Throughput Microsomal Stability Screening Assay for Profiling Drug Discovery Candidates, J. Biomol. Screen. 2003, The method described in 8(4), 453, the liver microsomal metabolic stability test of the compounds of the present disclosure was carried out analogously as follows.
The incubation system contained 0.5 mg protein/mL microsomes, cofactors, and PBS, was pre-incubated at 37° C. for 3 min, and then added the substrate (i.e., the test compounds) to initiate the reaction. Samples were taken at 0, 1, 5, 10, 15, 20, 30 and 60 min from the start of the reaction, and an appropriate terminator was added to terminate the reaction.
The terminator was an ice acetonitrile solution containing 100 ng/mL tolbutamide and 100 ng/mL labetalol.
Sample treatment (n=3): each appropriate sample was added, vortexed and centrifuged at high speed. The supernatants were collected, and the substrate was detected by HPLC-MS/MS. The peak area at the 0 min was taken as 100%. The peak areas at other time points were converted to percentage of the remaining amount. The natural logarithms of the percentage of remaining amount at each time point was plotted against the incubation time, and the slope (−k) was calculated by linear regression. Then, Clint (uL/min/mg) and half-life (T½, min) of the compounds were calculated following the equation of the inherent clearance rate (Clint)=(k* volume of incubation solution)/mass of liver microsomes.

Data set [2] in a line: Metabolic stability in human liver microsomes. Conditions: for microsomal CLint: 0.5 mg protein/mL. Format: in vitro ADME. The essentials: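 Compound incubated at 37 °C with 0.5 mg protein/mL liver microsomes plus cofactors in PBS, sampled at 0–60 min, quenched with cold acetonitrile and quantified by HPLC-MS/MS (n=3). Half-life and Clint (μL/min/mg) come from the slope of ln(% remaining) versus time.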
(Liver microsomes are a subcellular fraction often used to study metabolism.)

In data set [3] the target is T1, RORγt (RORγ-LBD chimeric receptor) (Homo sapiens, UniProt P51449).
T1 construct: host or cells: HEK293T
T1 sequence (P51449 269-508 limits assumed): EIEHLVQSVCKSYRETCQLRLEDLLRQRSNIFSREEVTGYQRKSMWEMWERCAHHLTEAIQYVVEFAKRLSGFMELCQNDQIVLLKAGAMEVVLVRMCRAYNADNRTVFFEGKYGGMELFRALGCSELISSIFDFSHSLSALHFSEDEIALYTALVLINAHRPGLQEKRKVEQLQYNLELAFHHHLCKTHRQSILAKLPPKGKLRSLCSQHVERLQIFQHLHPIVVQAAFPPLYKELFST
In words: Luciferase reporter gene assay of RORγt agonistic activity in HEK293T cells. It counts as cell-based. More on the design: Emax: dose or concentration left out as unconfirmed. Conditions: for EC50: HEK293T, GAL4 luciferase reporter, read-out: EC50; for Emax: HEK-293T. The essentials: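 EC50 derived from % activity (relative to positive control and vehicle) versus log concentration, using luciferase luminescence in transfected HEK293T cells. The cells carried a RORγ-LBD/GAL4 chimera plus a GAL4-promoter reporter; compounds were 3-fold serially diluted, 10 points from a 10 mM DMSO stock.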
Background: A reporter such as luciferase makes a cellular process visible.

Another data set has as its target T2, GST-RORγ LBD (263-509) (Homo sapiens, UniProt P51449).
T2 construct: GST-RORγ LBD ((263-509) (produced at ChemPartner))
T2 sequence (P51449 263-509): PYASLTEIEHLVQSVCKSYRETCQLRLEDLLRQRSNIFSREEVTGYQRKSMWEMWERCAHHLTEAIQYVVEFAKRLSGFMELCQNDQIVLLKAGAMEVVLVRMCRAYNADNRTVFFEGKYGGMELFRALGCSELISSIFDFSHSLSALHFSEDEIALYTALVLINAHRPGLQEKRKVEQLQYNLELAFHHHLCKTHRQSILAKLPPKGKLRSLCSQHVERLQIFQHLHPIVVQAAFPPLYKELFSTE
Nature of the data set: TR-FRET assay of agonistic activity on RORγ receptor. Format: biochemical. Conditions: for EC50: TR-FRET, GST-RORγ LBD with Biotin-SRC1; for Emax: maximum activation rate, TOP of fitted curve. An outline of the steps:
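GST-RORγ LBD (75 nM solution) mixed 1:1 with Biotin-SRC1 (4 nM solution), then with Eu anti-GST and SA-APC; compounds in 10-point 3-fold series from 10 mM stock, duplicate.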

The subject of the next data set is human PBMC (Th17 cells). In words: Th17 differentiation and IL-17 secretion in human PBMC. Format: cell-based. Conditions: IL-17 ELISA after 48 hours; for Emax: maximum activation rate. The procedure: Test procedure: PBMC cells were first thawed and plated, and then stimulated with stimulating factors (anti-hCD28: 5 μg/mL; rhTGF-β1: 5 ng/mL; rhIL-6: 20 ng/mL; rhIL-23: 10 ng/Ml) to differentiate to Th17, while adding different concentrations of compounds. All test compounds were serially diluted at 3-fold dilution with DMSO, with 8 serial dilutions starting from the maximum concentration 3 μM. The supermatants were collected after 48 hours for IL-17 ELISA detection, and compared with the solvent group, to determine the activation rate of the compounds on Th17 cells to secrete IL-17. EC50 values were fitted with Graphad8.0, and the TOP values fitted by the software was Emax %.
On the technique in general: ELISA stands for enzyme-linked immunosorbent assay.

A short description of data set [4]: Pharmacokinetic (PK) assay in mice. Format: in vivo. The conditions noted are these: CD-1 mice; for AUC(0-t) / Cmax / half-life / Vd / bioavailability: mouse, plasma; for Vd: values marked *, read-out: Vss; for bioavailability: Po 5 mg/kg vs IV 1 mg/kg; for CL_obs: values marked **. As to the method:
The PK of each compound was determined as follows: 6 CD-1 mice (obtained from Shanghai Lingchang Biotechnology Co., Ltd.) were divided into two groups, 3 mice in each group. One group was administered intravenously at a dose of 1 mg/kg, and the vehicle was 5% DMSO/40% PEG400/55% (20% 3-CD); one group was administered by oral gavage at a dose of 5 mg/kg, and the vehicle was DMSO/1% methylcellulose (1:99). Blood samples were collected from saphenous vein of lower leg in each group at 0, 0.083, 0.25, 0.5, 1, 2, 4, 6, 8 and 24 h after administration. Approximately 40 μL of the blood samples were collected into anticoagulant tubes containing EDTA-K2. Immediately after collection, the tubes were inverted at least 5 times to ensure uniform mixing, and then placed on ice. The blood samples collected at each time point were centrifuged at 4° C., 8000 rpm for 5 minutes to obtain plasma. Another 1.5 mL centrifuge tube was marked with the compound name, animal number, and time point, and the plasma was transferred to this tube. The plasma was stored at −80° C. until analysis.
Compound concentrations in plasma were determined by UPLC-MS/MS method, and the pharmacokinetic parameters were calculated by Phoenix WinNolin 6.4 pharmacokinetic software on the obtained data.

In the case of `COCC(C(=O)Nc1cc(Cl)c(-c2ccc(S(=O)(=O)C3CC3)cc2)c(Cl)c1)c1ccc(S(C)(=O)=O)cc1` (single isomer, unassigned) [Example 34, (S)—N-(2,6-dichloro-4′-(cyclopropylsulfonyl)-[1,1′-biphenyl]-4-yl)-3-methoxy-2-(4-(methylsulfonyl)phenyl)propanamide or (R)—N-(2,6-dichloro-4′-(cyclopropylsulfonyl)-[1,1′-biphenyl]-4-yl)-3-methoxy-2-(4-(methylsulfonyl)phenyl)propanamide], in data set [1], the “% Remaining (T = 60 min)” value came out at 74.5%, the half-life is more than 2.42 h and the microsomal CLint was less than 9.6 µL/min/mg. Further, in data set [2], the half-life is 1.48 h, the microsomal CLint turned out to be 15.6 µL/min/mg and the “% Remaining (T = 60 min)” value was determined as 62.4%. Moreover, in data set [3], the EC50 came out at 67 nM and the Emax amounted to 70.7%. On GST-RORγ LBD (263-509), this compound came in with an EC50 of 5.1 nM and an Emax of 191%. In the data set on human PBMC (Th17 cells), this compound registered an EC50 of 57.2 nM and an Emax of 195%.
Take `CS(=O)(=O)c1ccc(C(CO)C(=O)Nc2cc(Cl)c(-c3ccc(S(=O)(=O)C4CC4)cc3)c(Cl)c2)cc1` (single isomer, unassigned) [Example 36, (S)—N-(2,6-Dichloro-4′-(cyclopropylsulfonyl)-[1,1′-biphenyl]-4-yl)-2-(4-(methylsulfonyl)phenyl)-3-hydroxypropionamide or (R)—N-(2,6-dichloro-4′-(cyclopropylsulfonyl)-[1,1′-biphenyl]-4-yl)-2-(4-(methylsulfonyl)phenyl)-3-hydroxypropionamide]: the “% Remaining (T = 60 min)” value is listed as 83.9% in data set [1] and 62.3% in data set [2]. Further, the half-life in data set [1] is more than 2.42 h; in data set [2], 1.69 h. Besides, the figures for the microsomal CLint in data set [1] and in data set [2] were less than 9.6 µL/min/mg and 13.7 µL/min/mg, respectively. Moreover, the EC50 in data set [3] came to 54 nM; at GST-RORγ LBD (263-509), 4.3 nM; in the data set with human PBMC (Th17 cells), 36.2 nM. Also, the Emax is 71.3% in data set [3], 200% on GST-RORγ LBD (263-509) and 169% in the data set on human PBMC (Th17 cells).
Regarding `CCS(=O)(=O)c1ccc(C(COC)C(=O)Nc2cc(Cl)c(-c3ccc(S(C)(=O)=O)cc3)c(Cl)c2)cc1` (centres unmarked) [Example 15, N-(2,6-Dichloro-4′-(methylsulfonyl)-[1,1′-biphenyl]-4-yl)-2-(4-(ethylsulfonyl)phenyl)-3-methoxypropionamide], in data set [1], the “% Remaining (T = 60 min)” value is reported as 82.60%, the half-life is more than 2.42 h and the microsomal CLint was less than 9.6 µL/min/mg. Further, in data set [2], the half-life came out at 1.3 h, the microsomal CLint was 17.8 µL/min/mg and the “% Remaining (T = 60 min)” value was 58.7%. Further, in data set [3], the EC50 came to 202 nM and the Emax worked out at 79.5%. In data set [4] (IV 1 mg/kg), the AUC(0-t) turned out to be 2300 ng·h/mL, the Cmax is 1440 ng/mL, the half-life was 1.23 h and the Vd amounted to 0.71 L/kg. This compound also returned a bioavailability in data set [4] of 40%. In data set [4] (Po 5 mg/kg), this compound had an area under the curve AUC(0-t) of 4240 ng·h/mL, a Cmax of 1060 ng/mL and a half-life of 2.32 h. Besides, in the data set with human PBMC (Th17 cells), the EC50 was found to be 45.1 nM and the Emax amounted to 197%.
As for `CCS(=O)(=O)c1ccc(-c2c(Cl)cc(NC(=O)C(COC)c3ccc(S(C)(=O)=O)cc3)cc2Cl)cc1` (centres unmarked) [Example 19, N-(2,6-Dichloro-4′-(ethylsulfonyl)-[1,1′-biphenyl]-4-yl)-3-methoxy-2-(4-(methylsulfonyl)phenyl)propionamide], in data set [1], the “% Remaining (T = 60 min)” value is given as 23.10%, the half-life is 0.487 h and the microsomal CLint was determined as 47.4 µL/min/mg. For the same compound, in data set [2], the half-life was 1.78 h, the microsomal CLint is 13 µL/min/mg and the “% Remaining (T = 60 min)” value is reported as 60%. In data set [3], the EC50 was determined as 123 nM and the Emax is 91.4%. In data set [4] (IV 1 mg/kg), the CL_obs was 26.0** mL/min/kg, the AUC(0-t) was determined as 647 ng·h/mL, the concentration peaked (Cmax) at 932 ng/mL and the half-life is 0.63 h. Besides, the Vd in data set [4] (IV 1 mg/kg) worked out at 1.09 L/kg. In addition, the bioavailability in data set [4] came out at 29.7%. In data set [4] (Po 5 mg/kg), the AUC(0-t) worked out at 924 ng·h/mL, the Cmax was determined as 419 ng/mL and the half-life was 1.51 h. In the data set with human PBMC (Th17 cells), the EC50 was determined as 32.1 nM and the Emax came to 232%.
For the compound `CCS(=O)(=O)c1ccc(CC(=O)Nc2cc(Cl)c(-c3ccc(S(=O)(=O)C4CC4)cc3)c(Cl)c2)nc1` [Example 21, N-(2,6-Dichloro-4′-(cyclopropylsulfonyl)-1,1′-biphenyl-4-yl)-2-(5-(ethylsulfonyl)pyridin-2-yl)acetamide], in data set [1], the “% Remaining (T = 60 min)” value was 56%, the half-life is 1.33 h and the intrinsic metabolic clearance (microsomal CLint) came to 17.3 µL/min/mg. Besides, in data set [2], the half-life is more than 2.42 h, the intrinsic clearance (microsomal CLint) was less than 9.6 µL/min/mg and the “% Remaining (T = 60 min)” value is 79.6%. Also, in data set [3], the EC50 was found to be 72 nM and the Emax is 51.2%. Further, in data set [4] (IV 1 mg/kg), the CL_obs is given as 4.55** mL/min/kg, the AUC(0-t) stood at 3630 ng·h/mL, the highest level (Cmax) was 716 ng/mL and the half-life is 4.19 h. The Vd in data set [4] (IV 1 mg/kg) turned out to be 1.45 L/kg. In data set [4], this compound returned a bioavailability of 30.9%. Further, in data set [4] (Po 5 mg/kg), the AUC(0-t) stood at 5630 ng·h/mL, the concentration peaked (Cmax) at 611 ng/mL and the half-life was 3.83 h. Besides, in the data set on human PBMC (Th17 cells), the EC50 amounted to 183 nM and the Emax was determined as 297%.
